Legend:
[1] = tested on: CV-1P (African monkey green kidney fibroblasts cells); assay: In vitro transfection of plasmid DNA, β-galactosidase activity per well; assay type: cell-based; conditions: CVI-P
Description: Transfer of plasmid DNA by various compounds was investigated by using CV-1P (African monkey green kidney fibroblasts cells) and D407 (human retinal pigment epithelial) cells.
The cells were cultured in Dulbecco's modified Eagle's medium (DMEM, Gibco), supplemented with 10% fetal bovine serum (FBS), penicillin/streptomycin (100 units/ml and 100 μg/ml respectively) and 2 mM L-glutamine for D 407 cell line. Cell cultures were maintained at 37° C. in a 7% CO2/air incubator. The cells were collected, counted and seeded in growth medium (100 μl) into 96-well culture plate, 20 000 cells per well. One day later the medium was replaced with fresh medium without serum (150 μl)
In the case of confluent CV1-P cells the medium (with of without serum) was changed on fourth day of cell growth before the transfection.
The complexes at different derivative/DNA charge ratios for transfection procedure were prepared just before use in 50 mM MES—50 mM HEPES—75 mM NaCl buffer, pH 7.2 in separate 96 well plates. One hour after changing the serum-free medium with 10% serum the complexes were added to the cells at […]. Dose of DNA per well was 0.6 μg. After 5 h the complexes were removed, the cells were washed with PBS, and the normal growth medium was added. After 45 h of incubation at 37° C. the cells were lysed with 2% Triton X 100, twice deep frozen and the β-galactosidase activity in each well was determined spectrofotometrically with ELx800 automated microplate reader (Bio-Tex Instruments Inc., Winooski, Vt. USA) by monitoring the hydrolysis of o-nitrophenylgalactopyranoside (oNPG) at 405 nm. Purified β-galactosidase from E.coli was used to construct a standard curve and to calculate […] activity in the transfected cells. […] Transfection efficiencies are given as percentage in comparison to transfection efficiency of Lipofectin^R.

[2] = tested on: D 407 cells; assay: Cytotoxicity of amphiphile/DNA complexes, percentage of survived cells; assay type: cell-based, human; parameters: concentration or dose not given beside the values
[3] = tested on: D407 (human retinal pigment epithelial) cells; assay: In vitro transfection of plasmid DNA, β-galactosidase activity per well; assay type: cell-based; conditions: D 407
[4] = tested on: CVI-P cells; assay: Cytotoxicity of amphiphile/DNA complexes, percentage of survived cells
[5] = tested on: plasmid DNA; assay: DNA condensation/complexation, EtBr displacement assay; assay type: binding
Description: The ability of the cationic amphiphiles to condense DNA was assessed with an EtBr displacement assay. Briefly, in 96 well plates plasmid DNA (0.6 μg per well) was reacted with 0.002% EtBr in 20 mM HEPES—150 mM NaCl buffer, pH 7.4 and fluorescence intensity was measured at 530 nm (excitation) and 590 nm (emission). Intercalation of EtBr molecules between the base pairs of the DNA double helix results in increased fluorescence signal. Immediately thereafter, the cationic liposomes were added to form complexes at different +/−charge ratios and the quenching of fluorescence intensity of EtBr was monitored. Condensation of DNA upon complexation with liposomes results in the displacement of EtBr from DNA and in decreased fluorescence signal. Fluorescence was measured using FL 500 microplate fluorescence reader (Bio-Tek Instruments Inc., Winooski, Vt., USA).
The values are expressed as percentage of the maximum fluorescence signal when EtBr bound to DNA in the absence of an amphiphile. Each data point is from at least triplicate experiment ±S.D.

[6] = amphiphile/DNA +/− charge ratio 0.5
[7] = amphiphile/DNA +/− charge ratio 1
[8] = amphiphile/DNA +/− charge ratio 2
[9] = amphiphile/DNA +/− charge ratio 4
[10] = amphiphile/DNA +/− charge ratio 8

Which transfection efficiency [1, 6] does the source give for `CCCCCCCCCCCCCCOC(=O)C1=C(C[n+]2ccccc2)NC(C[n+]2ccccc2)=C(C(=O)OCCCCCCCCCCCCCC)C1c1ccccc1.[Br-].[Br-]` [XXIV, 1,1′-{[1,4-Dihydro-4-phenyl-3,5-bis(tetradecyloxycarbonyl)-pyridine-2,6-diyl]dimethylene}bispyridinium dibromide] here?
Its transfection efficiency is 0,63 β-galactosidase units per well.

What about the transfection efficiency [1, 7] of the same compound?
Its transfection efficiency is 2,48 β-galactosidase units per well.

And the transfection efficiency [1, 8]?
Its transfection efficiency is 15,46 β-galactosidase units per well.

What about the transfection efficiency [1, 9] of the same compound?
The transfection efficiency was 47,78 β-galactosidase units per well.

What about the transfection efficiency [1, 10] of the same compound?
Its transfection efficiency is 9,48 β-galactosidase units per well.

What about the “cytotoxicity as a percentage of survived cells” value (shortened to “cytotoxicity as a percentage”) [2, 6] of the same compound?
Its value is 97,59%.

What about the “cytotoxicity as a percentage” value [2, 7] of the same compound?
Its value is 88,59%.

And the “cytotoxicity as a percentage” value [2, 8]?
Its value is 98,83%.

And the “cytotoxicity as a percentage” value [2, 9]?
The value was 86,99%.

And the “cytotoxicity as a percentage” value [2, 10]?
Its value is 51,24%.

What about the transfection efficiency [3, 6] of the same compound?
The transfection efficiency was 0,20 β-galactosidase units per well.

And the transfection efficiency [3, 7]?
The transfection efficiency was 0,44 β-galactosidase units per well.

What about the transfection efficiency [3, 8] of the same compound?
The transfection efficiency was 0,53 β-galactosidase units per well.

What about the transfection efficiency [3, 9] of the same compound?
The transfection efficiency was 15,04 β-galactosidase units per well.

And the transfection efficiency [3, 10]?
The transfection efficiency was 3,61 β-galactosidase units per well.

What about the “cytotoxicity as a percentage” value [4, 6] of the same compound?
The value was 96,17%.

What about the “cytotoxicity as a percentage” value [4, 7] of the same compound?
Its value is 98,12%.

And the “cytotoxicity as a percentage” value [4, 8]?
Its value is 86,72%.

And the “cytotoxicity as a percentage” value [4, 9]?
The value was 88,19%.

And the “cytotoxicity as a percentage” value [4, 10]?
The value was 48,08%.

And the “complexation, percentage of the maximum fluorescence signal when EtBr bound to DNA in the absence of an amphiphile” value [5, 6]?
Its value is 78,91%.

What about the “complexation, percentage of the maximum fluorescence signal when EtBr bound to DNA in the absence of an amphiphile” value [5, 7] of the same compound?
Its value is 63,92%.

And the “complexation, percentage of the maximum fluorescence signal when EtBr bound to DNA in the absence of an amphiphile” value [5, 8]?
Its value is 54,5%.

What about the “complexation, percentage of the maximum fluorescence signal when EtBr bound to DNA in the absence of an amphiphile” value [5, 9] of the same compound?
The value was 50,0%.

And the “complexation, percentage of the maximum fluorescence signal when EtBr bound to DNA in the absence of an amphiphile” value [5, 10]?
The value was 49,62%.
